Reference: patent US6329497A, “Sandramycin analogs” (The Scripps Research Institute, priority 1999, dated 2001)

Tests used:
five cell lines = experiment: In vitro cytotoxic activity of key substructure analogs, five cell lines; assay type: cell-based
calf thymus DNA = experiment: DNA binding constant determination for 23 (ethidium bromide displacement; sandramycin titration)
Experimental: Calf thymus DNA (1.0×10^-5 M in base-pair) was mixed with ethidium bromide (5.0×10^-6 M) resulting in a 2:1 ratio of base-pair:ethidium in a 10 mM Tris-HCl (pH 7.4), 75 mM NaCl buffer solution (2 mL). The fluorescence was calibrated at 24° C. to 100% F and 0% F with a DNA-ethidium buffer solution and ethidium buffer solution, respectively. The premixed DNA-ethidium solution was titrated with small aliquots of 23 (20 to 40 μL of 3 mM […] in DMSO) and incubated at 24° C. for 30 min prior to each fluorescence measurement. The fluorescence was measured with 545 nm excitation and 595 nm emission with a slit width of 10 nm. The absolute binding constant from three such titrations were determined at 50% ethidium bromide displacement as measured by a drop in fluorescence to 50%. The binding constant of ethidium bromide employed to calculate the absolute binding constant with a competitive or noncompetitive binding model^39 was 4.5×10^5 M^-1 and the results are summarized in Table 4.
A 2 mL of sample containing 400 μL of calf thymus DNA (320 μM in base-pair) with or without the presence of 40 μL of 23 (3.2×10^-3 M in DMSO) in 10 mM Tris-HCl (pH 7.4), 75 mM NaCl buffer solution was titrated with small aliquots of sandramycin (1 μL, 1.0×10^-3 M in DMSO). The quenching of fluorescence was measured 5 min after each addition of sandramycin with 360 nm excitation and 530 nm fluorescence.

In the case of “(N-BOC-D-Ser-Pip-Gly-Sar-NMe-Val)2 (Serine Hydroxyl) Dilactone [compound 23]”, the “cytotoxic activity, in words” value (five cell lines; both chromophores removed) is reported as “inactive”, the “fold less potent than 1” value (five cell lines; five cell lines) is reported as “approx 10^5” and the “G° of binding” value (calf thymus DNA) is reported as -6.0 kcal/mol.
